Test results taken from patent publication US20200024278A1, “COMPOSITION COMPRISING ANTIBIOTIC COMPOUND AND AN HETEROCYCLIC COMPOUND AND THEIR USE IN PREVENTING OR TREATING BACTERIAL INFECTIONS” (MUTABILIS, priority 2016, published 2020).
Read-outs that look alike come from different tables or passages of the source.

Assays:
Experiment in all cases: MIC, broth microdilution (CLSI), substance alone or ATB combined with compound at 4 or 8 μg/mL
KPN 6299 = assay type: cell-based, K. pneumoniae; conditions: Klebsiella pneumoniae
Outline: (§1)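 Per CLSI-M7-A7, MICs are determined in cation-adjusted Mueller-Hinton broth with a final inoculum of 5·10^5 CFU/mL. Plates incubate 16-20 h at 35° C in air and are read by eye. Fosfomycin assays carry 25 μg/ml glucose-6-phosphate.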

KPN BAA-1898 = assay type: cell-based, K. pneumoniae; conditions: Klebsiella pneumoniae, BAA1898, KPN BAA-1898
Outline: as §1

KPN UFR68 = assay type: cell-based, K. pneumoniae; conditions: Klebsiella pneumoniae, substance alone
Outline: as §1

KPN UFR42 = assay type: cell-based, K. pneumoniae; conditions: Klebsiella pneumoniae, KPN UFR42
Outline: as §1

PAE UFR90 = assay type: cell-based, P. aeruginosa; conditions: Pseudomonas aeruginosa, PAE UFR90
Outline: as §1

PAE 105250 = assay type: cell-based, P. aeruginosa; conditions: Pseudomonas aeruginosa, PAE 105250
Outline: as §1

PAE UFR48 = assay type: cell-based, P. aeruginosa; conditions: Pseudomonas aeruginosa, PAE UFR48
Outline: as §1

ECL P99 = assay type: cell-based, E. cloacae; conditions: Enterobacter cloacae, ECL P99
Outline: as §1

ECO UFR39 = assay type: cell-based, E. coli; conditions: Escherichia coli, ECO UFR39
Outline: as §1

ECO 190317 = assay type: cell-based, E. coli; conditions: Escherichia coli, ECO 190317
Outline: as §1

SAU 29213 = assay type: cell-based, S. aureus; conditions: Staphylococcus aureus
Outline: as §1

SPN 49619 = assay type: cell-based, S. pneumoniae; conditions: Streptococcus pneumoniae, SPN 49619
Outline: as §1

[1] = antibiotic alone, read-out: MIC ATB alone

MIC (KPN 6299; [1]): > 1020 µg/mL
MIC (KPN 6299; substance alone, read-out: MIC): > 1020 µg/mL
MIC (KPN BAA-1898; [1]): > 1020 µg/mL
MIC (KPN BAA-1898; substance alone, read-out: MIC): > 1020 µg/mL
MIC (KPN UFR68): > 1020 µg/mL
MIC (KPN UFR42; [1]): > 256 µg/mL
MIC (KPN UFR42; substance alone, read-out: MIC): > 256 µg/mL
MIC (PAE UFR90; [1]): 256 µg/mL
MIC (PAE UFR90; substance alone, read-out: MIC): 256 µg/mL
MIC (PAE 105250; [1]): 128 µg/mL
MIC (PAE 105250; substance alone, read-out: MIC): 128 µg/mL
MIC (PAE UFR48; [1]): 256 µg/mL
MIC (PAE UFR48; substance alone, read-out: MIC): 256 µg/mL
MIC (ECL P99; [1]): 512 µg/mL
MIC (ECL P99; substance alone, read-out: MIC): 512 µg/mL
MIC (ECO UFR39; [1]): > 1020 µg/mL
MIC (ECO UFR39; substance alone, read-out: MIC): > 1020 µg/mL
MIC (ECO 190317; [1]): > 1020 µg/mL
MIC (ECO 190317; substance alone, read-out: MIC): > 1020 µg/mL
MIC (SAU 29213; antibiotic alone, SAU 29213, read-out: MIC ATB alone): 8 µg/mL
MIC (SAU 29213; substance alone, SAU 29213 (MSSA 29213), read-out: MIC): 8 µg/mL
MIC (SPN 49619; [1]): 0.5 µg/mL
MIC (SPN 49619; substance alone, read-out: MIC): 0.5 µg/mL
SMILES: CCN1CCN(C(=O)N[C@@H](C(=O)N[C@@H]2C(=O)N3[C@@H]2SC(C)(C)[C@@H]3C(=O)O)c2ccccc2)C(=O)C1=O [PIP, Piperacillin, reference compound]
